Results on eleven molecules are retold here after ChEMBL document CHEMBL1201862, “PubChem BioAssay data set” (2004).

Some test systems named below: A498; COLO 205; HCT-15; HL-60; HT-29; IGROV-1; M14; Malme-3M; NCI-H226; NCI-H460; OVCAR-3; OVCAR-4; RPMI-8226; RXF 393; SF-539; SK-MEL-5; U-251; UO-31.
Common to all, as to experiment: growth of human tumour cells (NCI), 48 h

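Test compounds were applied to cells in 96-well plates for 48 hours at 5 doses. GI50 = concentration required for 50% inhibition of growth.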 Activity calls are given as the source filed them. Cut-off read from the data, not from the text of the source: active = GI50 up to about 1.1 µM and inactive = higher. Where only a bound is given, the exact number is not on record here.

`O=C(c1ccccc1)N1C2CCC1C(C(F)(F)F)=C2C(F)(F)F`: the GI50 with A498 was > 100 µM (inactive); in the experiment on COLO 205, > 100 µM (inactive); with HCT-15, over 100 µM; with HL-60 it was 45.7 µM (inactive); in the experiment on HT-29 it was > 100 µM (inactive); in the experiment on IGROV-1, > 100 µM (inactive). Besides, the GI50 in the experiment on M14, in the experiment on Malme-3M, in the experiment with NCI-H226, with NCI-H460, in the experiment with OVCAR-3 and in the experiment on OVCAR-4 was > 100 µM (inactive) throughout. For the same molecule, the GI50 with RPMI-8226, in the experiment on RXF 393, in the experiment on SF-539, in the experiment with SK-MEL-5, in the experiment with U-251 and with UO-31 was > 100 µM (inactive) each time.
For `COc1c(OC(C)=O)cc2c(OC(C)=O)c1CC(C)CC(OC)C(O)C(C)/C=C(\C)C(OC(N)=O)C(OC)/C=C\C=C(/C)C(=O)N2` (stereo not given), the GI50 with A498 is > 100 µM (inactive); in the experiment on COLO 205, 5.77 µM (inactive); in the experiment on HCT-15, over 64.7 µM; in the experiment on HL-60, > 41.5 µM (inactive); with HT-29, > 81.8 µM (inactive); with IGROV-1, > 100 µM (inactive). Further, the GI50 is > 100 µM (inactive) with M14; 98.9 µM (inactive) in the experiment on Malme-3M; > 100 µM (inactive) in the experiment on NCI-H226; > 100 µM (inactive) in the experiment with NCI-H460; 98.4 µM (inactive) with OVCAR-3; > 100 µM (inactive) in the experiment with OVCAR-4. Moreover, the GI50 was > 54.5 µM (inactive) in the experiment on RPMI-8226; 98.2 µM (inactive) in the experiment with RXF 393; > 100 µM (inactive) with SF-539; > 100 µM (inactive) with SK-MEL-5; > 100 µM (inactive) with U-251; > 83.6 µM (inactive) with UO-31.
On to `CN(C)CN(C)c1nc(N(C)C)nc(N(C)CN(C)C)n1`, for which the GI50 in the experiment on A498 is > 100 µM (inactive); with COLO 205, 27.8 µM (inactive); with HCT-15 it was 24.7 µM; in the experiment on HL-60, 17 µM (inactive); in the experiment with HT-29 it was 57.8 µM (inactive); in the experiment with IGROV-1, > 100 µM (inactive). Besides, the GI50 is 36.7 µM (inactive) in the experiment with M14; > 100 µM (inactive) with NCI-H226; 57.3 µM (inactive) in the experiment on NCI-H460; > 100 µM (inactive) with OVCAR-3; 42.4 µM (inactive) with OVCAR-4; 27.2 µM (inactive) with RPMI-8226. Also, the GI50 with RXF 393 was 19.5 µM (inactive); in the experiment with SF-539, 50.4 µM (inactive); with SK-MEL-5, 51.1 µM (inactive); in the experiment with U-251 it was > 100 µM (inactive); with UO-31 it was > 100 µM (inactive).
On to `CCOCc1cc(=O)c2cc3c(cc2o1)OC(C)(C)CC3`, for which the GI50 with A498 is > 100 µM (inactive); in the experiment on COLO 205, > 100 µM (inactive); in the experiment on HCT-15, over 100 µM; with HL-60 it was 61.2 µM (inactive); in the experiment on HT-29, > 100 µM (inactive); in the experiment with IGROV-1, > 100 µM (inactive). Moreover, the GI50 in the experiment with M14, in the experiment with Malme-3M, in the experiment with NCI-H226, in the experiment with NCI-H460, with OVCAR-3 and in the experiment with OVCAR-4 was > 100 µM (inactive) in each case. For the same molecule, the GI50 with RPMI-8226 was 91.4 µM (inactive); in the experiment on RXF 393, > 100 µM (inactive); in the experiment on SF-539 it was > 100 µM (inactive); in the experiment on SK-MEL-5, 56.6 µM (inactive); in the experiment on U-251 it was > 100 µM (inactive); in the experiment on UO-31, 92.9 µM (inactive).
Turning to `O=C(O)/C(Cl)=C(\Cl)C(=O)Nc1ccccc1`, the GI50 is > 100 µM (inactive) in the experiment on A498; > 100 µM (inactive) with COLO 205; over 100 µM in the experiment with HCT-15; > 100 µM (inactive) in the experiment on HT-29; > 100 µM (inactive) in the experiment with IGROV-1; > 100 µM (inactive) in the experiment with M14. Further, the GI50 with Malme-3M, with NCI-H226, with NCI-H460, in the experiment on OVCAR-3, in the experiment with OVCAR-4 and in the experiment on RPMI-8226 was > 100 µM (inactive) throughout. Also, the GI50 in the experiment with RXF 393, in the experiment on SF-539, in the experiment with SK-MEL-5, in the experiment on U-251 and in the experiment on UO-31 was > 100 µM (inactive) in each case.
Regarding `CS(=O)(=O)OCCn1cnc2nc(NC(=O)c3ccccc3)[nH]c(=O)c21`, the GI50 is > 100 µM (inactive) in the experiment with A498; > 100 µM (inactive) in the experiment on COLO 205; over 100 µM in the experiment on HCT-15; > 100 µM (inactive) in the experiment on HL-60; > 100 µM (inactive) in the experiment on HT-29; > 100 µM (inactive) with IGROV-1. Further, the GI50 with M14, in the experiment on Malme-3M, in the experiment on NCI-H226, in the experiment on NCI-H460, in the experiment on OVCAR-3 and in the experiment with OVCAR-4 was > 100 µM (inactive) each time. Further, the GI50 in the experiment with RPMI-8226, with RXF 393, with SF-539, in the experiment on SK-MEL-5, in the experiment with U-251 and in the experiment on UO-31 was > 100 µM (inactive) throughout.
Consider `CC(=O)OC1=C2CC[C@@H]3C(CC[C@@]4(C)C3CC[C@@H]4OC(C)=O)[C@@]2(C)CC(C#N)C1=O` (stereo not given in full), for which the GI50 in the experiment with A498 is 6.01 µM (inactive); in the experiment on COLO 205, 20.8 µM (inactive); in the experiment with HCT-15 it was 28.9 µM; in the experiment with HL-60, 16 µM (inactive); with HT-29 it was 26.5 µM (inactive); with IGROV-1 it was 19.2 µM (inactive). Besides, the GI50 was 25.1 µM (inactive) in the experiment with M14; 5.58 µM (inactive) with Malme-3M; 34.7 µM (inactive) in the experiment on NCI-H226; 24.4 µM (inactive) with NCI-H460; 21.2 µM (inactive) in the experiment with OVCAR-3; 24.4 µM (inactive) in the experiment with OVCAR-4. Moreover, the GI50 with RPMI-8226 is 12 µM (inactive); with RXF 393, 23.4 µM (inactive); in the experiment with SF-539 it was 30.3 µM (inactive); in the experiment on SK-MEL-5 it was 20.2 µM (inactive); in the experiment with U-251 it was 27.4 µM (inactive); in the experiment with UO-31, 7.69 µM (inactive).
`COc1cc(C(=O)N2CCc3c([nH]c4c([N+](=O)[O-])c(OC)ccc34)C2C)cc(OC)c1OC` (stereo not given): the GI50 with A498 was > 100 µM (inactive); with COLO 205 it was > 100 µM (inactive); with HCT-15 it was over 100 µM; in the experiment with HL-60, > 100 µM (inactive); in the experiment with HT-29, > 100 µM (inactive); with IGROV-1, 8.11 µM (inactive). Besides, the GI50 in the experiment on M14, with NCI-H226, in the experiment with NCI-H460, in the experiment on OVCAR-3, in the experiment with OVCAR-4 and with RPMI-8226 was > 100 µM (inactive) throughout. The GI50 is 26.7 µM (inactive) in the experiment on RXF 393, 89.1 µM (inactive) in the experiment with SF-539, > 100 µM (inactive) with U-251 and > 100 µM (inactive) with UO-31.
With `Oc1cc(-c2cccs2)nc2cc3c(cc12)OCO3`, the GI50 with A498 was 3.17 µM (inactive); in the experiment with COLO 205 it was 9.06 µM (inactive); in the experiment with HCT-15, 4.23 µM; in the experiment with HL-60 it was 4.37 µM (inactive); in the experiment with HT-29 it was 13.6 µM (inactive); with IGROV-1, 3.37 µM (inactive). In addition, the GI50 in the experiment on M14 is 2.55 µM (inactive); in the experiment on Malme-3M, 3.08 µM (inactive); with NCI-H226 it was 4.32 µM (inactive); in the experiment with NCI-H460 it was 3.24 µM (inactive); in the experiment with OVCAR-3, 4.63 µM (inactive); in the experiment on RPMI-8226, 6.32 µM (inactive). Further, the GI50 in the experiment on RXF 393 is 1.9 µM (inactive); with SF-539, 3.7 µM (inactive); in the experiment with SK-MEL-5, 1.75 µM (inactive); in the experiment with U-251, 7.43 µM (inactive); in the experiment with UO-31, 4.69 µM (inactive).
Take `Cc1cc(N(CCC#N)CCC#N)ccc1/N=N/c1ccccc1[N+](=O)[O-]`: the GI50 in the experiment on A498 was > 100 µM (inactive); with COLO 205, > 100 µM (inactive); in the experiment on HCT-15 it was over 100 µM; in the experiment on HL-60, > 100 µM (inactive); with HT-29, > 100 µM (inactive); in the experiment with IGROV-1, > 100 µM (inactive). Also, the GI50 in the experiment with M14, in the experiment with Malme-3M, with NCI-H226, in the experiment with OVCAR-3, in the experiment with OVCAR-4 and with RXF 393 was > 100 µM (inactive) throughout. Besides, the GI50 in the experiment with SF-539, with SK-MEL-5, in the experiment with U-251 and in the experiment with UO-31 was > 100 µM (inactive) throughout.
Consider `CC1=C(C(=O)Nc2ccc(C)cc2)C(c2cccc([N+](=O)[O-])c2)C(C(=O)Nc2ccc(C)cc2)=C(C)N1`, for which the GI50 in the experiment with A498 is 16.4 µM (inactive); in the experiment on COLO 205 it was 14.1 µM (inactive); in the experiment on HCT-15 it was 26.2 µM; in the experiment with HL-60, 16.1 µM (inactive); with HT-29, 17.2 µM (inactive); in the experiment with IGROV-1, 20.9 µM (inactive). Also, the GI50 in the experiment with M14 is 16.9 µM (inactive); in the experiment with Malme-3M, 28.2 µM (inactive); in the experiment on NCI-H226, 69.5 µM (inactive); in the experiment on NCI-H460 it was 19.7 µM (inactive); with OVCAR-3, 20 µM (inactive); with OVCAR-4, 12.2 µM (inactive). In addition, the GI50 in the experiment with RXF 393 was 22.8 µM (inactive); in the experiment with SF-539, 19 µM (inactive); with SK-MEL-5, 20.2 µM (inactive); with U-251 it was 20.7 µM (inactive); in the experiment with UO-31, 22 µM (inactive).
